For data set [1], the system named is Ca2+ channel type L (diltiazem binding site). In words: Ca2+ channel type L (diltiazem binding site) affinity study. The note with it: 100 μM, rat cerebral cortex. The source says:
A unique feature of the compound 6 representing compounds of formula (II) according to the invention is the inhibition of calcium currents by blocking the transient receptor potential vanilloid type 1 (TRPV1). This effect has not been disclosed for known AEDs. TRPV1 receptor antagonism may determine the antinociceptive effect of the compounds disclosed herein. The role of the TRPV1 receptor in conduction of pain stimuli has been well documented in specialist literature (Szallasi, A.; Cortright, D. N.; Blum, C. A.; Eid, S. R. Nat. Rev. Drug. Discov. 2007, 6, 357-372). The compounds according to the invention are characterized by a complex mechanism of action, which is not described for known anticonvulsants. It should be emphasized, however, that further in vitro studies may reveal further molecular targets responsible for the pharmacological action of substances being the subject of current patent claim. The results of binding studies (sodium channel, calcium channel) and functional tests (TRPV1 receptor) for compound 6 are shown in Table 3.

Data set [2] deals with Potassium channel (hERG) (Homo sapiens, UniProt Q12809). In words: Potassium channel (hERG) affinity study. The class given is binding. The note with it: 100 μM, human recombinant cells (HEK-293).
The subject of data set [3] is voltage-dependent sodium channels in the prefrontal cortex pyramidal neurons. In words: In vitro electrophysiological study of sodium currents. The class given is cell-based, Rats. Here is the method:
The experiments were carried out in accordance with institutional and international guidelines regarding the ethics of animal research. Rats (3 weeks old) were anesthetized with ethyl chloride and decapitated. The brains were then removed and placed in ice-cold extracellular fluid. The methodology of slice preparation and pre-incubation has been described earlier (Szulczyk, B.; Nurowska, E. Biochem. Biophys. Res. Commun. 2017, 491, 291-295). The sections containing the prefrontal cortex were enzymatically and mechanically dispersed. Single prefrontal cortex pyramidal neurons were visualized using an inverted microscope (Nikon). Sodium currents were induced by rectangular depolarizing stimuli. The potential between depolarizing stimuli was maintained at −65 mV. […]
The extracellular fluid washing the neurons contained (in mM): NaCl (30), choline chloride (90), TEA-Cl (30), CaCl2 (2), MgCl2 (2), glucose (15), HEPES (10), LaCl3 (0.001) and CdCl2 (0.4) (pH 7.4). Currents were recorded using an Axopatch 1D amplifier and analyzed using pClamp software (Axon Instruments and Molecular Devices, USA). […]
The patch membrane was ruptured by suction or by an electrical stimulus, and then membrane capacitance was compensated. […] The leakage current was subtracted from the recorded currents. […]

Data set [4] relates to HepG2 cells. The experiment in a line: In vitro hepatotoxicity, MTS cell viability assay. The class given is cell-based. The following applies: 100 μM, 72 h incubation, p<0.05. Here is the method:
In vitro hepatotoxicity assessment. The studies were conducted using the hepatoma HepG2 liver cancer cell line, which is used to assess the hepatotoxicity of the substance in vitro. A classic MTS colorimetric assay from Promega (Madison, WI, USA) was used to investigate the effect of 6 on HepG2 cell viability and proliferation. The compound was tested at four concentrations in the range (0.1-100 μM). Doxorubicin at a concentration of 1 μM was used as a reference cytostatic. In addition, the reference mitochondrial toxin carbonyl cyanide m-chlorophenylhydrazone (CCCP) at a concentration of 10 μM was also used (FIG. 10). […] In addition, cell viability was reduced to just 84% of the control, indicating a trace toxic effect of this compound on HepG2 cell lines. Due to the particular exposure of liver cells to the potential toxic effects of xenobiotics, an additional test was carried out with the HepG2 line in the form of luminescent measurement of ATP levels in cells, after a short 3-hour exposure to compound 6, in concentrations in the range of 1-100 μM. […]
In vitro hepatotoxicity assessment—methodology. […] Plates were again incubated for 2-3 hours, followed by absorbance measurement at 490 nm with an EnSpire PerkinElmer (Waltham, MA, USA) reader. Statistical significance was calculated by one-way ANOVA variance analysis and the Bonferroni method. […]

Chain of Potassium channel (hERG) (Q12809 whole entry): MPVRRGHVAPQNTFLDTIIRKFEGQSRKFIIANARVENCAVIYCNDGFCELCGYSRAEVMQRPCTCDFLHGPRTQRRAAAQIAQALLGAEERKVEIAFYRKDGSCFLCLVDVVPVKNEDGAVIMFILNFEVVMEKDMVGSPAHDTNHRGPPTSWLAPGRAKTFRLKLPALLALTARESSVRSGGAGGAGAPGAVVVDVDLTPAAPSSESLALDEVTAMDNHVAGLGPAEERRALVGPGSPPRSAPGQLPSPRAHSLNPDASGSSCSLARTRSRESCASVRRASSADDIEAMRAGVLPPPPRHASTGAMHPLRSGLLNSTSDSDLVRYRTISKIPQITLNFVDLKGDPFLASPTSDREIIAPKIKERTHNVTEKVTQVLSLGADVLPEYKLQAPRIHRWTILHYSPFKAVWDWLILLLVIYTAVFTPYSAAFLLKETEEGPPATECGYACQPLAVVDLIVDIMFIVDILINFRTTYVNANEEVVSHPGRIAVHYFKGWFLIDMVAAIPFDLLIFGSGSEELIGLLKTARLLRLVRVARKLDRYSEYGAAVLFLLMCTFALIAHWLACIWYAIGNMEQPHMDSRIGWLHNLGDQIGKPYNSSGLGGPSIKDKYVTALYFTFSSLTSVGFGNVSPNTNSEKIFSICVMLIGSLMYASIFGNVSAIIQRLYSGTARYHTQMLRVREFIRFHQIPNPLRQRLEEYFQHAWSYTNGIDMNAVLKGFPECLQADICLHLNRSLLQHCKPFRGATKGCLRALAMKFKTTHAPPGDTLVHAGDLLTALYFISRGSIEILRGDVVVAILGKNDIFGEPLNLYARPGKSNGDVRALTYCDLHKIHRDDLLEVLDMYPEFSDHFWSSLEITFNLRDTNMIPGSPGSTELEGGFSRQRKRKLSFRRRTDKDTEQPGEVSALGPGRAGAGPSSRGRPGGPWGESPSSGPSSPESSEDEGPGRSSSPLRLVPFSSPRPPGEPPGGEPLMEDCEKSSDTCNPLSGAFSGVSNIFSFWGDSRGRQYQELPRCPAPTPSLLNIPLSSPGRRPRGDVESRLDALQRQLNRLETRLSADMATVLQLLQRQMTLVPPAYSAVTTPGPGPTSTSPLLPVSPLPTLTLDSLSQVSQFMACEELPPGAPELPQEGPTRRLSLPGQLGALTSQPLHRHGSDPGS

As to `O=C(C(c1ccccc1)N1C(=O)CCC1=O)N1CCN(c2cccc(C(F)(F)F)c2)CC1` (racemic) [Compound 6, 1-(2-Oxo-1-phenyl-2-(4-(3-(trifluoromethyl)phenyl)piperazin-1-yl)ethyl)pyrrolidine-2,5-dione], the “Inhibition of specific control binding, Ca2+ channel type L (diltiazem binding site)” value in data set [1] is given as 69.6 (100) %. Moreover, in data set [2], the “Inhibition of specific control binding, Potassium channel (hERG)” value is recorded as 25.8 (100) %. In addition, the “maximum amplitude of sodium currents normalized to control (1.0)” value in data set [3] (100 μM, in the presence of the compound, holding -65 mV) was found to be 0.59±0.08. Further, the “sodium current amplitude normalized to control after washing out” value in data set [3] (after wash-out of 100 μM, n=5) is given as 0.79±0.07. Also, in data set [4], the “HepG2 cell viability, % of the control” value amounted to 84%.

The record behind these values is US12139458B2, “(2,5-dioxopyrrolidin-1-yl)(phenyl)-acetamide derivatives and their use in the treatment of neurological diseases” (UNIWERSYTET JAGIELLONSKI, priority 2019, dated 2024).
